From PMC6968383, “Design, synthesis, in vitro and in vivo evaluation of benzylpiperidine-linked 1,3-dimethylbenzimidazolinones as cholinesterase inhibitors against Alzheimer’s disease” (Journal of Enzyme Inhibition and Medicinal Chemistry, 2019) come the findings set out here.

By IC50 is commonly meant the concentration that gives 50% inhibition.

Test [1] has as its target T1, AChE (EC 3.1.1.7) from human (Homo sapiens, UniProt P22303).
T1 construct: purchased Sigma-Aldrich
Put plainly: human AChE inhibition assay, Ellman's method. It counts as biochemical. Conditions: for IC50: human AChE, mean ± SEM, read-out: huAChE IC50. As to the method: ; The inhibitory activities of the target compounds towards AChE (from Electrophorus electricus (electric eeAChE, Sigma-Aldrich) and horse serum BChE (eqBChE, Sigma-Aldrich) or human AChE – huAChE; human BuChE – huBuChE (huAChE, huBuChE, Sigma-Aldrich) were measured by Ellman’s method. In 96-well plates, a mixture of phosphate buffer (0.1 M, pH 8.0, […]), 5,5′-dithiobis-2-nitrobenzoic acid (DTNB, 60 µL), acetylcholinestrase or butyrylcholinesterase (20 µL, 5 IU/mL) and different concentration of the compound solution (30 µL) was pre-incubated for 5 min followed by the addition of the substrate (acetylthiocholine iodide or butyrylthiocholine iodide, 20 µL). Changes in absorbance were measured at 412 nm by using microplate reader (Thermo, Varioskan Flash 3001, USA). The measurement of each concentration for each compound was detected in triplicate. GraphPad Prism 6.0 (GraphPad Software, Inc., La Jolla, CA) was used for data processing. The inhibition curve was fitted by plotting percentage enzyme activity (100% for the reference) versus the logarithm of the concentration of tested compound. The half-maximal inhibitory concentration (IC50) values were calculated according to the inhibition curve and the data were shown in the layout of mean ± SEM by GraphPad Prism 6.0.
(In general: DTNB colorimetry detects thiols as they appear.)

Test [2] is described as follows: DPPH radical scavenging activity. Conditions: at 1 mM. As to the method: Compounds 15b and 15j were selected to be evaluated for their 1,1-diphenyl-2-picrylhydrazyl radical scavenging activity (DPPH) compared with trolox as reference compound[12].
Corresponding Authors: clarissa0710@163.com (Y. Chen); sunhaopeng@163.com (H. P.
1.1. Inhibition of self-induced Aβ1–42 aggregation
Inhibitory effect of the compounds on self -induced Aβ1–42 aggregation was determined through a thioflavin T (ThT)-(T3516, Sigma-Aldrich) binding assay.
Firstly, aliquots of 2 μL of Aβ 1–42 (AS-64129–05 Anaspec Inc.) containing 2 mg/mL HFIP (1,1,1,3,3,3-hexafluoro-2-propanol, 52517 (Sigma-Aldrich) were stocked in DMSO).
Then, they were diluted with 0.215M sodium phosphate buffer (pH 8.0) to the final concentration of 500 μM. Test compounds were dissolved in DMSO and then prepared at a concentration of 50 μM by the buffer. Resveratrol was used as a positive control. […]
Fluorescence intensity was read (excitation wavelength 450 nm, emission wavelength 485 nm) on a microplate reader (Thermo, Varioskan Flas h 3001, USA).
The calculation of the inhibitory rate of Aβ 1–42 self-induced aggregation was performed using the following equation: (1 -IFi/IFc) × 100 %. IFi and IFc were the fluorescence intensities measured in the presence and absence of inhibitors, respe ctively, after subtracting the background fluorescence of the 5mM ThT solution. Each compound was measured in triplicate. […]

Test [3] concerns scopolamine-induced cognition impairment in ICR mice. The test can be described thus: Morris water maze test, scopolamine-induced cognition impairment. The test is classed as in vivo. The conditions noted are these: oral 15 mg kg−1, scopolamine 1 mg kg−1 ip, probe trial on sixth day, mean ± SEM n = 6. As to the method:
The test included 5 days of learning and memory training and a probe trial on the sixth day.
Scopolamine hydrobromide was supplied by Aladdin Reagents (H1507073, Shanghai, China).
Cognitive function was evaluated by the Morris water maze analysis-management system (SMART 3.0, Panlab, Madrid, Spain), according to the method previously described[30].The maze was placed in a lit room with visual cues at 25 °C. An escape platform (10 cm diameter) was located in the centre of one quadrant of the circular pool (120 cm diameter, 60 cm height) with a depth of 40 cm water. The behavioural study of each mouse included 5 days of learning and memory training and a probe trial on day 6. The animal starting positions faced to the pool wall, and were pseudorandomised for each trial. For the cognitive evaluation, each mouse was individually evaluated on both visible-platform (days 1–2) and hidden-platform (days 3–5) versions of the water maze. All mice received nonspatial pretraining during the first two training days, which prepared them for the subsequent spatial learning test. During the two days, mice were trained to find the platform that was labelled by a small flag (5 cm tall). The hidden platform version was used to determine the retention of memory to find the platform. During the hidden-platform training trials, the escape platform was placed 1 cm below the surface of the water. On each day, the animal was subjected to two trials, each of which lasted for 90 s. The time for the mouse to find the platform (a successful escape) was recorded. […] On the last day (day 6), the platform was removed from its location and the animals were given a probe trial in which they had 90 s to search for the platform. The time taken to reach the missing platform and the number of times the animals crossed the platform location were recorded.
Data for the time of escape latency, the trajectory travelled, and the number of platform location crossings were recorded by SMART 3.0, Panlab, Madrid, Spain and processed by GraphPad Prism 6.0.

The next test has as its target T2, eqBChE (Equus caballus, UniProt P81908).
T2 construct: horse serum BChE (eqBChE, Sigma-Aldrich); purchased Sigma-Aldrich; host or cells: horse serum
The test can be described thus: Kinetic study of BChE inhibition (Lineweaver–Burk). Conditions: Lineweaver–Burk plot, 0, 0.5, 1, 2, 5 µM. The test is classed as biochemical. As to the method: In each case, the kinetic type of enzyme inhibition was obtained through the modified Ellman’s method and Lineweaver–Burk secondary plots.
Figure 2. […] (B) Lineweaver–Burk plot for the inhibition of eqBChE by compound 15j at different concentrations of substrate.
[…]. The enzymatic reaction was extended to 7 min for eeAChE and eqBuChE before the determination of the absorption. Vmax and Km values of the Michaelis–Menten kinetics were calculated by nonlinear regression from substrate-velocity curves using GraphPad Prism 6.0. Linear regression was used for fitting the Lineweaver–Burk plots.

T1 sequence (P22303 32-614): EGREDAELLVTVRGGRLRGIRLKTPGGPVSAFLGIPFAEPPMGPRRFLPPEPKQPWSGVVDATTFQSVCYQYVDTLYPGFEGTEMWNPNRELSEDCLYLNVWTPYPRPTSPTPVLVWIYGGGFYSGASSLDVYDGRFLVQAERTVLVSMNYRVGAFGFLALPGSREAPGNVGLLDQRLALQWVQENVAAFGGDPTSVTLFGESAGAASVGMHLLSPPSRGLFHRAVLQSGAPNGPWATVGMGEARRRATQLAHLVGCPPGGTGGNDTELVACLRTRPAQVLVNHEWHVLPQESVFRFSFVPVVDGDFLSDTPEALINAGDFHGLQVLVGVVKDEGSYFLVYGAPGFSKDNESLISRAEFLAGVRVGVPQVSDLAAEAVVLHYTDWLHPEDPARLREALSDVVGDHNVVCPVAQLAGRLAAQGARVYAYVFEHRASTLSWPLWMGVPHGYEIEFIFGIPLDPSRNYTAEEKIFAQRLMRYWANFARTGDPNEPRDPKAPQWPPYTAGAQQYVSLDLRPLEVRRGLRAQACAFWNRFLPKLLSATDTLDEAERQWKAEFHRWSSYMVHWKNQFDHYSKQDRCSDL
T2 sequence (P81908 whole entry): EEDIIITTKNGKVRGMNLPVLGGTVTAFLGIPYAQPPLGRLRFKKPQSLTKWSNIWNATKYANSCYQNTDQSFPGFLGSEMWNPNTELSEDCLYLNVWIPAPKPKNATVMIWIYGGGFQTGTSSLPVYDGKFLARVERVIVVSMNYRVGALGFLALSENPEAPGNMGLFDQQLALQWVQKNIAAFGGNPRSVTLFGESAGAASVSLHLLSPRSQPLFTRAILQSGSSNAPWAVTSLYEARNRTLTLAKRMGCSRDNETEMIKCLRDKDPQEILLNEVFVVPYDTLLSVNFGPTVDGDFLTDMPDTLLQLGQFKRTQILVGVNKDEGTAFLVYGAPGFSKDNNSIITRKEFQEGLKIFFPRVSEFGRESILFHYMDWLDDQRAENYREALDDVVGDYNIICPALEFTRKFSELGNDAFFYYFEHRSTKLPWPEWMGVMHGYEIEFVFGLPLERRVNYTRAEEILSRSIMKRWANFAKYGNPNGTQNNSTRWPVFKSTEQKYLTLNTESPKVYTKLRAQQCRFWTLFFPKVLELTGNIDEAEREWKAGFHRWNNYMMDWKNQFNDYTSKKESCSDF

Turning to `Cc1ccccc1CN1CCC(CNS(=O)(=O)c2ccc3c(c2)n(C)c(=O)n3C)CC1` [Compound 15b, 1,3-dimethyl-N-((1–(2-methylbenzyl)piperidin-4-yl)methyl)-2-oxo-2,3-dihydro-1H-benzo[d]imidazole-5-sulphonamide], in test [1], the IC50 came out at 1490 ± 430 nM. For the same molecule, the DPPH inhibitory rate in test [2] is 12.2%. In test [3], this molecule returned a Distance to target of 252.32 ± 8.42 cm and a Latency to target of 9.29 ± 0.31 s.

As to `Cn1c(=O)n(C)c2cc(S(=O)(=O)NCC3CCN(Cc4cccc(Br)c4)CC3)ccc21` [Compound 15j, N-((1–(3-bromobenzyl)piperidin-4-yl)methyl)-1,3-dimethyl-2-oxo-2,3-dihydro-1H-benzo[d]imidazole-5-sulphonamide], the “SI (selectivity index = AChE IC50/BChE IC50)” value in test [1] (huAChE IC50 / huBChE IC50) was 1.89. Further, the IC50 in test [1] came out at 1250 ± 480 nM. Also, the “kinetic type of BChE inhibition” value at eqBChE was “competitive”. In test [2], this molecule yielded a DPPH inhibitory rate of 6.3%. For the same molecule, in test [3], the Distance to target is listed as 350.27 ± 16.59 cm and the Latency to target worked out at 12.85 ± 0.72 s.
